Columns and labels:
[1] = Acute toxicity, single oral dose; type: in vivo, mice; details: mouse, in vivo; single oral dose of 250 mg (E: 1000 mg), 14 days observation, mice; read-out: animals that died out of 10
Method: (§1) The acute toxicity of the compounds was determined in groups of 10 mice after oral administration of a single dose (observation period: 14 days): […]

mice = test: Acute toxicity, single oral dose; type: in vivo; details: groups of 10 mice, single oral dose, observation period 14 days; dose at which 0 out of 10 animals died
Method: as §1

conscious mice = test: Determination of the prolongation of bleeding time (tail tip, oral, conscious mice); type: in vivo; details: Mus musculus, 2.5 mg/kg oral, after 1 hour, compared to control group, 5 animals per experiment
Method: To measure the bleeding time, 2.5 mg/kg of the test compound were administered orally to conscious mice. After one hour, 0.5 mm of the tip of the tail of each mouse was cut off and the droplets of blood were gently removed with filter paper every 30 seconds. The number of drops of blood thus obtained give a bleeding time (5 animals per experiment).
The results of the following table represent the prolongation of the bleeding time in percent as compared to a control group: […]

[2] = tested on: phosphodiesterase (PDE) from human blood platelets; test: PDE Inhibition (human blood platelet phosphodiesterase, 3H-cAMP hydrolysis); type: biochemical; details: 1 μmol/liter 3H-cAMP, 15 minutes at 37° C., pH 7.4
Method: cAMP is hydrolyzed to AMP by phosphodiesterase (PDE) from various sources, including blood platelets.
The phosphodiesterase used was prepared by centrifugal extraction at 10,000 G from human blood platelets which were frozen in water and then thawed.
0.3 ml of a mixture containing 0.1 mol/liter of trihydroxy-aminomethane (pH 7.4), 3 mmols/liter of magnesium chloride, 1 mmol/liter of AMP, 1 μmol/liter of ^3 H-cAMP (specific activity about 10 MBq/μmol), PDE and the inhibitor under investigation (water in the case of the control) was incubated for 15 minutes at 37° C. The incubation was stopped by the addition of 0.5 ml zinc sulfate (0.266 mol/liter) and 0.5 ml barium hydroxide (0.226 mol/liter), the precipitate was centrifuged, and the activity remaining in the unreacted ^3 H-cAMP in the supernatant was determined. From a comparison of the results for inhibitor and control cases, the concentration of the respective inhibitor necessary for a 50% inhibiting effect (IC50) was calculated: […]

Row | Structure (SMILES) | mortality at 336 h [1] [%] | Approximate acute toxicity (dose) (mice) [mg] | change in vivo at 2.5 mg/kg (conscious mice) [%] | IC50 [2] [nM]
1 | N=S(=O)(CCCCOc1ccc2c(c1)CCC(=O)N2)c1ccccc1 (stereo not shown) [B, 6-(4-phenylsulfoximino-butoxy)-3,4-dihydrocarbostyril] | 0 | 250 | > 161 | 2000
2 | N=S(=O)(CCCCOc1ccc2c(c1)CCC(=O)N2)c1ccc(F)cc1 (stereo not shown) [C, 6-[4-(4-fluorophenyl-sulfoximino)-butoxy]-3,4-dihydrocarbostyril] | 0 | 250 | 125 | 1200
3 | CS(=N)(=O)CCCCOc1ccc2c(c1)CCC(=O)N2 (stereo not shown) [Compound A, 6-(4-methylsulfoximino-butoxy)-3,4-dihydrocarbostyril mesitylenesulfonate] | 0 | 250 | 73 | 45000
4 | Cc1cc(S(=N)(=O)CCCCOc2ccc3[nH]c(=O)ccc3c2)ccc1Br (stereo not shown) [Compound I, 6-[4-(3-methyl-4-bromophenyl-sulfoximino)-butoxy]-carbostyril] | 0 | 250 | > 275 | 39
5 | N=S(=O)(CCCCOc1ccc2c(c1)CCC(=O)N2)c1ccc(Cl)cc1 (stereo not shown) [D, 6-[4-(4-chlorophenyl-sulfoximino)-butoxy]-3,4-dihydrocarbostyril] | 0 | 250 | 53 | 840
6 | CC(=O)N=S(=O)(CCCCOc1ccc2c(c1)CCC(=O)N2)c1ccc(Cl)c(Cl)c1 (stereo not shown) [E, 6-[4-(N-acetyl-3,4-dichlorophenyl-sulfoximino)-butoxy]-3,4-dihydrocarbostyril] | 0 | 1000 | > 194 | 840
7 | Cc1ccc(S(=O)(=O)N=S(=O)(CCCCOc2ccc3c(c2)CCC(=O)N3)c2ccc(Cl)c(Cl)c2)cc1 (stereo not shown) [F, 6-[4-(N-p-toluenesulfonyl-3,4-dichlorophenyl-sulfoximino)-butoxy]-3,4-dihydrocarbostyril] | 0 | 250 | > 212 | 900
8 | N=S(=O)(CCCCOc1ccc2[nH]c(=O)ccc2c1)c1ccc(F)cc1 (stereo not shown) [G, 6-[4-(4-fluorophenyl-sulfoximino)-butoxy]-carbostyril] | 0 | 250 | 85 | 400
9 | N=S(=O)(CCCCOc1ccc2[nH]c(=O)ccc2c1)c1ccc(Cl)cc1 (stereo not shown) [H, 6-[4-(4-chlorophenyl-sulfoximino)-butoxy]-carbostyril] | 0 | 250 | 78 | 170
10 | CC(C)(C)c1ccc(S(=N)(=O)CCCCOc2ccc3c(c2)CCC(=O)N3)cc1 (stereo not shown) [K, 6-[4-(4-tert.butylphenyl-sulfoximino)-butoxy]-3,4-dihydrocarbostyril] | – | – | > 180 | 240
11 | N=S(=O)(CCCCOc1ccc2c(c1)CCC(=O)N2)c1ccc(C2CCCCC2)cc1 (stereo not shown) [L, 6-[4-(4-cyclohexylphenyl-sulfoximino)-butoxy]-3,4-dihydrocarbostyril] | – | – | > 191 | 52
12 | CC(C)(C)c1ccc(S(=N)(=O)CCCCOc2ccc3[nH]c(=O)ccc3c2)cc1 (stereo not shown) [M, 6-[4-(4-tert.butylphenyl-sulfoximino)-butoxy]-carbostyril] | – | – | > 191 | 210
13 | N=S(=O)(CCCCOc1ccc2[nH]c(=O)ccc2c1)C1CCCCC1 (stereo not shown) [N, 6-(4-cyclohexylsulfoximino-butoxy)-carbostyril] | – | – | > 184 | 680
14 | CCCC(=O)N=S(=O)(CCCCOc1ccc2c(c1)CCC(=O)N2)c1ccc(Cl)c(Cl)c1 (stereo not shown) [O, 6-[4-(N-butyryl-3,4-dichlorophenyl-sulfoximino)-butoxy]-3,4-dihydrocarbostyril] | – | – | > 233 | 530
15 | CC(=O)N=S(=O)(CCCCOc1ccc2c(c1)C(C)(C)C(=O)N2)c1ccc(Cl)cc1 (stereo not shown) [P, 5-[4-(N-Acetyl-4-chlorophenyl-sulfoximino)-butoxy]-3,3-dimethyl-indolin-2-one] | – | – | > 169 | 1800
16 | COc1ccc(S(=O)(CCCCOc2ccc3c(c2)CCC(=O)N3)=NC(=O)c2ccc(C(C)(C)C)cc2)cc1OC (stereo not shown) [Q, 6-[4-(N-tert.benzoyl-3,4-dimethoxyphenyl-sulfoximino)-butoxy]-3,4-dihydrocarbostyril] | – | – | > 158 | 3100
17 | COc1ccc(S(=N)(=O)CCCCOc2ccc3c(c2)CCC(=O)N3)cc1OC (stereo not shown) [R, 6-[4-(3,4-dimethoxyphenyl-sulfoximino)-butoxy]-3,4-dihydrocarbostyril] | – | – | > 218 | 1600

Reference: patent US4551464A, “Antithrombotic sulfoximino carbostyrils” (Dr. Karl Thomae Gesellschaft mit beschrankter Haftung, priority 1981, dated 1985)
